Laboratory results taken from US5804599A, “Interleukin-1 production inhibiting compound” (Kyowa Hakko Kogyo Co., Ltd., priority 1994, dated 1998).
Values after ≈ are worked out from the molar mass of the structure shown. Where two headings read alike, the source gives them in different places.

Legend:
bacteria = details: in words; cited from earlier work
IL-1 β = assay: Inhibiting activity of the production of IL-1 (LPS-stimulated, PMA-differentiated THP-1 cells, ELISA); format: cell-based; details: Homo sapiens, read-out: IC50 (50% inhibitory concentration) of IL-1 production
Experimental: Inhibiting Activity of the production of IL-1
With respect to Compound (I) of the present invention, the inhibiting activity of production of IL-1 β derived from THP-1 cells (ATCC No. TIB 202) of a human monocyte was examined. The amount of IL-1 β was determined by the ELISA method.
The THP-1 cells were suspended in an RPMI 1640 culture solution comprising 10% inactivated fetal bovine serum at a concentration of 1×10^5 cells/ml. The suspension was charged in a 24-well plate at a volume of 1 ml/well. PMA (phorbol 12-myristate 13-acetate, made by Wako Pure Chemical Industries, Ltd.; final concentration 30 nM) was added thereto, and the mixture was cultured in a mixed gas of 5% CO2 and 95% air at 37° C. for 65 hours. The cells were differentiated in a macrophage form.
The cultivation plate was gently washed with a serum-free RPMI 1640 culture solution to remove the cells not adhered thereto, and the residue was cultured for 4 hours in a serum-free RPMI 1640 culture solution (1 ml/well) to which LPS (lipopolysaccharide, made by Difco Laboratories; a final concentration 25 μg/ml) and a compound to be tested were added simultaneously.
After the completion of the cultivation, the amount of IL-1 β which was released in the cultivated supernatant was determined using an IL-1 β determination kit (made by Amersham Corp.).
Percent inhibition of IL-1 production was calculated using the following equation to obtain IC50 (50% inhibitory concentration).
Percent inhibition of IL-1 production (%) =[(A-B)/(A-C)]×100
A: amount of IL-1 produced when only LPS is added
B: amount of IL-1 produced when LPS and the compound to be tested are added
C: amount of IL-1 when LPS is not added

[1] = test system: Bacillus subtilis No. 10707; assay: Antibacterial activity (MIC), agar dilution method; format: cell-based; details: pH 7.0
Experimental: (§1) Antibacterial activity was determined by an agar dilution method using a medium (pH 7.0) comprising 3 g/l bactotrypton (made by Difco Laboratories), 3 g/l meat extract, 1 g/l yeast extract, 1 g/l glucose and 16 g/l agar.

[2] = test system: Enterococcus faecium ATCC 10541; assay: Antibacterial activity (MIC), agar dilution method; format: cell-based; details: ATCC10541, pH 7.0
Experimental: as §1

[3] = test system: Staphylococcus aureus ATCC 6538P; assay: Antibacterial activity (MIC), agar dilution method; format: cell-based; details: ATCC6538P, pH 7.0
Experimental: as §1

[4] = IL-1 β release from THP-1 cells, LPS 25 μg/ml, 4 hours, serum-free RPMI 1640

MIC [1]	MIC [2]	MIC [3]	Structure (SMILES)	antibacterial activity (bacteria)	further results
–	–	–	CC(C)C/C=C/C=C/C=C/C(=O)NC1=CC(O)(/C=C/C=C/C=C/C(=O)NC2=C(O)CCC2=O)C2OC2C1=O (stereo not drawn) [U-56407]	known to exhibit antibacterial activity	–
–	–	–	CCCC[C@@H](C)/C=C(C)/C=C(\C)C(=O)NC1=C[C@@](O)(/C=C/C=C/C=C/C(=O)NC2=C(O)CCC2=O)[C@@H]2O[C@@H]2C1=O [Manumycin A]	known to exhibit antibacterial activity	–
–	–	–	CCCCC(C)/C=C(C)/C=C/C(=O)NC1=CC(O)(/C=C/C=C/C=C/C(=O)NC2=C(O)CCC2=O)C2OC2C1=O (stereo not drawn) [Manumycin C]	known to exhibit antibacterial activity	–
–	–	–	CC(C)/C=C/C=C/C=C/C(=O)NC1=C[C@@](O)(/C=C/C=C/C=C/C(=O)NC2=C(O)CCC2=O)C2OC2C1=O (stereo partly drawn) [Manumycin G]	known to exhibit antibacterial activity	–
20 µg/mL (≈ 40.4 µM)	20 µg/mL (≈ 40.4 µM)	20 µg/mL (≈ 40.4 µM)	CC(C)C/C=C/C=C/C(=O)NC1=CC(O)(/C=C/C=C/C=C/C(=O)NC2=C(O)CCC2=O)C2OC2C1=O (stereo not drawn) [EI-1511-3]	–	IC50 (IL-1 β; [4]): 5.4 µM; Solubility (Solubility; in acetone): easily soluble; Solubility (Solubility; in dimethyl sulfoxide): easily soluble; Solubility (Solubility; in methanol): soluble
–	–	–	O=C(/C=C/C=C/C1CCCCC1)NC1=CC(O)(/C=C/C=C/C=C/C(=O)NC2=C(O)CCC2=O)C2OC2C1=O (stereo not drawn) [Alisamycin]	known to exhibit antibacterial activity	–
5 µg/mL (≈ 10.1 µM)	20 µg/mL (≈ 40.3 µM)	10 µg/mL (≈ 20.1 µM)	CCCCC(C)/C=C/C(=O)NC1=CC(O)(/C=C/C=C/C=C/C(=O)NC2=C(O)CCC2=O)C2OC2C1=O (stereo not drawn) [EI-1625-2]	–	IC50 (IL-1 β; [4]): 5.4 µM
–	–	–	CCCCC(C)/C=C(\C)C(=O)NC1=CC(O)(/C=C/C=C/C=C/C(=O)NC2=C(O)CCC2=O)C2OC2C1=O (stereo not drawn) [Manumycin B]	known to exhibit antibacterial activity	–

Structure (SMILES)	MIC [1]	MIC [2]	MIC [3]	antibacterial activity (bacteria)	further results
CCC(C)/C=C/C=C/C=C/C(=O)NC1=CC(O)(/C=C/C=C/C=C/C(=O)NC2=C(O)CCC2=O)C2OC2C1=O (stereo not drawn) [EI-1511-5]	20 µg/mL (≈ 38.4 µM)	20 µg/mL (≈ 38.4 µM)	20 µg/mL (≈ 38.4 µM)	–	IC50 (IL-1 β; THP-1, 4 h): 3.6 µM; Solubility (Solubility; in acetone): easily soluble; Solubility (Solubility; in dimethyl sulfoxide): easily soluble; Solubility (Solubility; in methanol): soluble
